Laboratory results from ChEMBL document CHEMBL3870331, “Design, development of new synthetic methodology, and biological evaluation of substituted quinolines as new anti-tubercular leads” (Bioorg Med Chem Lett, 2016).

Legend:
[1] = test system: Mycobacterium tuberculosis; assay: Antimycobacterial activity against Mycobacterium tuberculosis H37Rv ATCC 27294 measured after 28 days by MABA method; format: functional; conditions: H37Rv ATCC 27294, 672 h
[2] = Cytotoxicity against HEK293T cells assessed as inhibition of cell viability at 50 ug/ml after 72 hrs by MTT assay relative to control; format: toxicity, cell-based, HEK-293T; conditions: human, read-out: INH
[3] = Therapeutic index, ratio of compound cytotoxic activity for HEK293T cells to MIC99 for Mycobacterium tuberculosis H37Rv ATCC 27294; format: cell-based, HEK-293T; conditions: human, read-out: TI

Row | SMILES | MIC99 [1] | cytotoxicity at 72 h, 50 ug/ml [2] [%] | selectivity ratio [3]
1 | CCOC(=O)c1c(C)nc2ccc(Cl)cc2c1-c1ccccc1 | 76.7 µM |  | 
2 | c1ccc(-c2cc(-c3ccccc3)c3ccccc3n2)cc1 | 11.1 µM | 18.1 | 
3 | COC(=O)c1c(C)nc2ccccc2c1-c1ccccc1 | 45.1 µM | 25.6 | 
4 | Cc1nc2ccccc2c(-c2ccccc2)c1C(=O)c1ccccc1 | 19.3 µM | 22.1 | 
5 | CCOC(=O)c1c(C)nc2ccccc2c1-c1ccccc1 | 0.69 µM | 25.6 | > 250
6 | CCOC(=O)c1c(C)nc2ccccc2c1C | 109 µM |  | 
7 | c1ccc(-c2c3c(nc4ccccc24)CCC3)cc1 | 25.5 µM | 30 | 
8 | Cc1nc2ccccc2c(-c2ccccc2)c1C(=O)Nc1ccc(F)cc1 | 16.8 µM | 12.5 | 
9 | O=C1CC(c2ccccc2)Cc2nc3ccccc3c(-c3ccccc3)c21 (stereo unspecified) | 35.8 µM |  | 
10 | Cc1nc2ccccc2c(-c2ccccc2)c1C(=O)NCc1cccc(F)c1 | 33.8 µM |  | 
11 | CC(=O)c1c(C)nc2ccccc2c1-c1ccccc1 | 47.8 µM |  | 
12 | COc1ccc(NC(=O)c2c(C)nc3ccccc3c2-c2ccccc2)cc1 | 8.48 µM | 35.2 | 
13 | Cc1nc2ccccc2c(-c2ccccc2)c1C(=O)Nc1ccccn1 | 73.7 µM |  | 
14 | COC(=O)c1c(C)nc2ccc(Cl)cc2c1-c1ccccc1 | 80.2 µM |  | 
15 | c1ccc(-c2cc(-c3cccs3)nc3ccccc23)cc1 | 21.8 µM | 25.5 | 
16 | Cc1nc2ccccc2c(-c2ccccc2)c1C(=O)OC(C)(C)C | 1.22 µM | 13.6 | 
17 | CC(=O)c1c(C)nc2ccc(Cl)cc2c1-c1ccccc1 | 10.6 µM | 19.9 | 
18 | Cc1nc2ccccc2c(-c2ccccc2)c1C(=O)Nc1ccc(Cl)cc1 | 17.5 µM | 16.3 | 
19 | Cc1nc2ccccc2c(-c2ccccc2)c1C(=O)Nc1ccccc1Br | 15 µM | 15.6 | 
20 | Cc1nc2ccccc2c(-c2ccccc2)c1C(=O)Nc1ccccc1I | 3.36 µM | 17.9 | 
21 | CC1(C)CC(=O)c2c(nc3ccccc3c2-c2ccccc2)C1 | 20.7 µM | 22 | 
22 | COc1ccccc1CNC(=O)c1c(C)nc2ccccc2c1-c1ccccc1 | > 65.4 µM |  | 
23 | O=C1CCCc2nc3ccccc3c(-c3ccccc3)c21 | 45.7 µM |  | 

Row | SMILES | MIC99 [1] | cytotoxicity at 72 h, 50 ug/ml [2] [%] | selectivity ratio [3]
24 | c1ccc(-c2c3c(nc4ccccc24)CCCCC3)cc1 | 45.7 µM |  | 
25 | c1ccc(-c2cc(-c3ccco3)nc3ccccc23)cc1 | 5.75 µM | 34 | 
26 | Cc1nc2ccccc2c(-c2ccccc2)c1C(=O)Nc1cccnc1Cl | 16.7 µM | 11.3 | 
27 | Cc1nc2ccccc2c(-c2ccccc2)c1C(=O)Nc1ccc(Br)cc1 | 30.9 µM |  | 
28 | Cc1nc2ccccc2c(-c2ccccc2)c1C(=O)NCc1ccccc1 | 70.9 µM |  | 
29 | Cc1nc2ccccc2c(-c2ccccc2)c1C(=O)NCc1ccccc1Cl | 4.03 µM | 13.6 | 
30 | Cc1nc2ccccc2c(-c2ccccc2)c1C(=O)Nc1ccccc1F | 35.1 µM |  | 
31 | Cc1nc2ccccc2c(-c2ccccc2)c1C(=O)NCc1cccc(Cl)c1 | 64.6 µM |  | 
32 | CC1CC(=O)c2c(nc3ccccc3c2-c2ccccc2)C1 (stereo unspecified) | 21.8 µM | 28 | 
33 | Cc1nc2ccccc2c(-c2ccccc2)c1C(=O)NCc1ccc(C(C)(C)C)cc1 | 3.82 µM | 35.6 | 
34 | c1ccc(-c2c3c(nc4ccccc24)CCCCCC3)cc1 | 10.9 µM | 31.1 | 
35 | c1ccc(-c2c3c(nc4ccccc24)CCCC3)cc1 | 48.2 µM |  | 
36 | Cc1nc2ccccc2c(-c2ccccc2)c1C(=O)Nc1ccccc1OC(F)(F)F | 29.6 µM |  | 
37 | Cc1nc2ccccc2c(-c2ccccc2)c1C(=O)Nc1ccccc1Cl | 33.5 µM |  | 
38 | Cc1nc2ccc(Cl)cc2c(-c2ccccc2)c1C(=O)c1ccccc1 | 8.73 µM | 26.1 | 
39 | COc1ccccc1NC(=O)c1c(C)nc2ccccc2c1-c1ccccc1 | 67.9 µM |  | 
40 | Cc1nc2ccccc2c(-c2ccccc2)c1C(=O)Nc1ccncc1 | 18.4 µM | 12.6 | 
41 | Cc1ccccc1CNC(=O)c1c(C)nc2ccccc2c1-c1ccccc1 | 8.53 µM | 20.6 | 
42 | Cc1nc2ccccc2c(-c2ccccc2)c1C(=O)Nc1ccccc1 | 9.23 µM | 25.6 | 
43 | CC[C@@H](CO)NCCN[C@@H](CC)CO [ETHAMBUTOL] | 1.56 µg/mL |  | 
44 | NNC(=O)c1ccncc1 [ISONIAZID] | 0.098 µg/mL |  | 
45 | NC(=O)c1cnccn1 [PYRAZINAMIDE] | 6.25 µg/mL |  | 
46 | CO[C@H]1/C=C/O[C@@]2(C)Oc3c(C)c(O)c4c(O)c(c(/C=N/N5CCN(C)CC5)c(O)c4c3C2=O)NC(=O)/C(C)=C\C=C\[C@H](C)[C@H](O)[C@@H](C)[C@@H](O)[C@@H](C)[C@H](OC(C)=O)[C@@H]1C [RIFAMPIN] | 0.197 µg/mL |  | 
